Test results: patent publication US20190343908A1, “Therapeutic Combination for the Treatment of Cancer” (Nerium Biotechnology Inc., priority 2011, published 2019)

Key:
HT55 (colorectal cancer) [1] = test: Crystal Violet viability assay, HT55; assay type: cell-based, human; design: key: absorbance at 570 nm (crystal violet), background wavelength subtracted
From the text: (§1) Three different viability assays were chosen to complement each other and yielded results dependent on concentration and cell line: the Methyl Tetrazolium dye assay, the Sulforhodamine B fluorescent dye assay, and the Crystal Violet dye assay.
(§2) The Sulforhodamine B and Crystal Violet assays provide information about protein and were used to complement the Methyl-Tetrazolium dye assay. […] It is used for the quantification of cellular proteins of cultured cells. The assay using Crystal Violet, a dye that binds electrostatically to proteins and stains DNA, provides a reliable, simple assay for measuring viability of cells.
(§3) The Methyl Tetrazolium, Sulforhodamine B, and Crystal Violet assays were used to assess cell viabilities. The incubation times were 24 hours, 48 hours, and 72 hours. The Nerium oleander extract Anvirzel™ (a hot water extract of oleander obtained from Salud Integral, Honduras) was tested in concentrations ranging from 0.01 ng/mL to 10 ng/mL.
(§4) Cells were detached by trypsinization (Trypsin-0.25% EDTA, Invitrogen, 25200-072) during the logarithmic phase of culture growth and plated in 96-well plates (18.000 cells/well) (Corning, Costar 359) in a final volume of 200 μl of medium per well. […] The absorbance was measured after 24 hours, 48 hours, and 72 hours of incubation.
For the Crystal Violet assay, the medium was removed from the 96-well plates, the plates rinsed with PBS (Sigma, P3813) and then the cells were […] by the addition of 10% formalin (MERCK, 1.04003.2500) for 20 minutes at RT. Formalin was removed and 0.25% aqueous crystal violet (Sigma, HT901), dissolved in water, was added for 10 minutes at RT. Unbound Crystal Violet was rinsed by washing with water and finally 33% acetic acid was added to dissolve the dye.
(§5) The optical density of each plate was measured on a μQuant spectrophotometer and the data were analyzed with Gen5 software (μQuant Biomolecular Spectrophotometer MQX200 and Gen5™ Microplate Data Collection & Analysis software, BioTek® Instruments. Inc, April 2008). Absorbance was measured at 570 nm for all assays and a second wavelength was measured in order to subtract noise. For the Methyl-Tetrazolium assay this second wavelength was 630 nm and for the Sulforhodamine B and Crystal Violet assays it was 690 nm.

HT55 (colorectal cancer) [2] = test: Sulforhodamine B viability assay, HT55; assay type: cell-based, human; design: key: absorbance (optical density) at 570 nm, second wavelength subtracted
From the text: as §1, §2, §3, §4
For the Sulforhodamine B assay, 96-well plates were fixed by 10% trichloroacetic acid (Fluka, 91228) and were incubated at 4° C. for 1 hour. Afterwards, plates were rinsed with water and cells were stained with 0.4% Sulforhodamine B (Sigma, 341738), dissolved in 1% acetic acid (Carlo Ebra, 401422) for 15 minutes at room temperature (RT). The unbound stain was washed twice with 1% acetic acid. Finally, 10 mM Tris Buffer pH 10.5 (Sigma, T6791) was added to dissolve the dye.
as §5

[3] = HT55, Run 1, 24 h, 0.1 μg/ml CDDP
[4] = HT55, Run 1, 24 h, 1 μg/ml CDDP
[5] = HT55, Run 1, 24 h, 10 μg/ml CDDP
[6] = HT55, Run 1, 24 h, 100 μg/ml CDDP
[7] = HT55, Run 1, 48 h, 0.1 μg/ml CDDP
[8] = HT55, Run 1, 48 h, 1 μg/ml CDDP
[9] = HT55, Run 1, 48 h, 10 μg/ml CDDP
[10] = HT55, Run 1, 48 h, 100 μg/ml CDDP
[11] = HT55, Run 1, 72 h, 0.1 μg/ml CDDP
[12] = HT55, Run 1, 72 h, 1 μg/ml CDDP
[13] = HT55, Run 1, 72 h, 10 μg/ml CDDP
[14] = HT55, Run 1, 72 h, 100 μg/ml CDDP
[15] = HT55 Run 2, 24 h, 0.1 μg/ml CDDP
[16] = HT55 Run 2, 24 h, 10 μg/ml CDDP
[17] = HT55 Run 2, 24 h, 100 μg/ml CDDP
[18] = HT55 Run 2, 48 h, 0.1 μg/ml CDDP
[19] = HT55 Run 2, 48 h, 10 μg/ml CDDP
[20] = HT55 Run 2, 48 h, 100 μg/ml CDDP
[21] = HT55 Run 2, 72 h, 0.1 μg/ml CDDP
[22] = HT55 Run 2, 72 h, 10 μg/ml CDDP
[23] = HT55 Run 2, 72 h, 100 μg/ml CDDP
[24] = HT55 Run 3, 24 h, 0.1 μg/ml CDDP
[25] = HT55 Run 3, 24 h, 10 μg/ml CDDP
[26] = HT55 Run 3, 24 h, 100 μg/ml CDDP
[27] = HT55 Run 3, 48 h, 0.1 μg/ml CDDP
[28] = HT55 Run 3, 48 h, 10 μg/ml CDDP
[29] = HT55 Run 3, 48 h, 100 μg/ml CDDP
[30] = HT55 Run 3, 72 h, 0.1 μg/ml CDDP
[31] = HT55 Run 3, 72 h, 10 μg/ml CDDP
[32] = HT55 Run 3, 72 h, 100 μg/ml CDDP

SMILES: N.N.[Cl][Pt][Cl] [cisplatin]
- CVE Average (HT55 (colorectal cancer) [1]; [3]): 0.838
- CVE Average (HT55 (colorectal cancer) [1]; [4]): 0.557
- CVE Average (HT55 (colorectal cancer) [1]; [5]): 0.728
- CVE Average (HT55 (colorectal cancer) [1]; [6]): 0.383
- CVE Average (HT55 (colorectal cancer) [1]; [7]): 0.588
- CVE Average (HT55 (colorectal cancer) [1]; [8]): 0.314
- CVE Average (HT55 (colorectal cancer) [1]; [9]): 0.405
- CVE Average (HT55 (colorectal cancer) [1]; [10]): 0.269
- CVE Average (HT55 (colorectal cancer) [1]; [11]): 0.901
- CVE Average (HT55 (colorectal cancer) [1]; [12]): 0.437
- CVE Average (HT55 (colorectal cancer) [1]; [13]): 0.436
- CVE Average (HT55 (colorectal cancer) [1]; [14]): 0.243
- CVE Average (HT55 (colorectal cancer) [1]; [15]): 1.745
- CVE Average (HT55 (colorectal cancer) [1]; HT55 Run 2, 24 h, 1 μg/ml CDDP): 0.942
- CVE Average (HT55 (colorectal cancer) [1]; [16]): 1.075
- CVE Average (HT55 (colorectal cancer) [1]; [17]): 0.758
- CVE Average (HT55 (colorectal cancer) [1]; [18]): 0.793
- CVE Average (HT55 (colorectal cancer) [1]; HT55 Run 2, 48 h, 1 μg/ml CDDP): 0.23
- CVE Average (HT55 (colorectal cancer) [1]; [19]): 0.281
- CVE Average (HT55 (colorectal cancer) [1]; [20]): 0.286
- CVE Average (HT55 (colorectal cancer) [1]; [21]): 0.937
- CVE Average (HT55 (colorectal cancer) [1]; HT55 Run 2, 72 h, 1 μg/ml CDDP): 0.395
- CVE Average (HT55 (colorectal cancer) [1]; [22]): 0.326
- CVE Average (HT55 (colorectal cancer) [1]; [23]): 0.244
- CVE Average (HT55 (colorectal cancer) [1]; [24]): 0.591
- CVE Average (HT55 (colorectal cancer) [1]; HT55 Run 3, 24 h, 1 μg/ml CDDP): 0.201
- CVE Average (HT55 (colorectal cancer) [1]; [25]): 0.812
- CVE Average (HT55 (colorectal cancer) [1]; [26]): 0.15
- CVE Average (HT55 (colorectal cancer) [1]; [27]): 1.099
- CVE Average (HT55 (colorectal cancer) [1]; HT55 Run 3, 48 h, 1 μg/ml CDDP): 0.561
- CVE Average (HT55 (colorectal cancer) [1]; [28]): 1.712
- CVE Average (HT55 (colorectal cancer) [1]; [29]): 0.285
- CVE Average (HT55 (colorectal cancer) [1]; [30]): 1.228
- CVE Average (HT55 (colorectal cancer) [1]; HT55 Run 3, 72 h, 1 μg/ml CDDP): 0.577
- CVE Average (HT55 (colorectal cancer) [1]; [31]): 2.329
- CVE Average (HT55 (colorectal cancer) [1]; [32]): 0.431
- SRB Average (HT55 (colorectal cancer) [2]; [3]): 2.17
- SRB Average (HT55 (colorectal cancer) [2]; [4]): 2.229
- SRB Average (HT55 (colorectal cancer) [2]; [5]): 2.246
- SRB Average (HT55 (colorectal cancer) [2]; [6]): 2.052
- SRB Average (HT55 (colorectal cancer) [2]; [7]): 2.437
- SRB Average (HT55 (colorectal cancer) [2]; [8]): 2.238
- SRB Average (HT55 (colorectal cancer) [2]; [9]): 2
- SRB Average (HT55 (colorectal cancer) [2]; [10]): 2.009
- SRB Average (HT55 (colorectal cancer) [2]; [11]): 2.413
- SRB Average (HT55 (colorectal cancer) [2]; [12]): 2.434
- SRB Average (HT55 (colorectal cancer) [2]; [13]): 2.222
- SRB Average (HT55 (colorectal cancer) [2]; [14]): 1.875
- SRB Average (HT55 (colorectal cancer) [2]; [15]): 2.445
- SRB Average (HT55 (colorectal cancer) [2]; HT55 Run 2, 24 h, 1 μg/ml CDDP): 2.327
- SRB Average (HT55 (colorectal cancer) [2]; [16]): 2.387
- SRB Average (HT55 (colorectal cancer) [2]; [17]): 2.766
- SRB Average (HT55 (colorectal cancer) [2]; [18]): 2.408
- SRB Average (HT55 (colorectal cancer) [2]; HT55 Run 2, 48 h, 1 μg/ml CDDP): 2.098
- SRB Average (HT55 (colorectal cancer) [2]; [19]): 1.814
- SRB Average (HT55 (colorectal cancer) [2]; [20]): 1.508
- SRB Average (HT55 (colorectal cancer) [2]; [21]): 2.564
- SRB Average (HT55 (colorectal cancer) [2]; HT55 Run 2, 72 h, 1 μg/ml CDDP): 1.804
- SRB Average (HT55 (colorectal cancer) [2]; [22]): 1.74
- SRB Average (HT55 (colorectal cancer) [2]; [23]): 2.019
- SRB Average (HT55 (colorectal cancer) [2]; [24]): 2.101
- SRB Average (HT55 (colorectal cancer) [2]; HT55 Run 3, 24 h, 1 μg/ml CDDP): 1.801
- SRB Average (HT55 (colorectal cancer) [2]; [25]): 2.557
- SRB Average (HT55 (colorectal cancer) [2]; [26]): 2.038
- SRB Average (HT55 (colorectal cancer) [2]; [27]): 2.648
- SRB Average (HT55 (colorectal cancer) [2]; HT55 Run 3, 48 h, 1 μg/ml CDDP): 2.071
- SRB Average (HT55 (colorectal cancer) [2]; [28]): 2.649
- SRB Average (HT55 (colorectal cancer) [2]; [29]): 1.727
- SRB Average (HT55 (colorectal cancer) [2]; [30]): 2.177
- SRB Average (HT55 (colorectal cancer) [2]; HT55 Run 3, 72 h, 1 μg/ml CDDP): 1.424
- SRB Average (HT55 (colorectal cancer) [2]; [31]): 2.784
- SRB Average (HT55 (colorectal cancer) [2]; [32]): 1.831
